Assay results as given in paper PMC12186298, “Phase 1 clinical trial of eneboparatide, a novel PTH receptor 1 agonist” (Endocrine Connections, 2025).
Peptide text beside a SMILES is read from it.

Tested on: healthy subjects
Assay: Safety and tolerability, adverse events, Part B MAD
[1] = Part B, 10 μg/day sc 14 days, n = 8
[2] = Part B, 20 μg/day sc 14 days, n = 8
[3] = Part B, 40 μg/day sc 14 days, n = 8
[4] = Part B, 60 μg/day sc 14 days, n = 8
[5] = Part B, 80 μg/day sc 14 days, n = 8
[6] = Part B, total eneboparatide, n = 40

Description: A total of five sequential cohorts were included in Part B with ten subjects in each cohort (eight receiving eneboparatide at a dose of 10, 20, 40, 60 and 80 μg/day, respectively, and two receiving placebo in a randomized and double-blind manner). […] They were resident in the study unit until day 17 and FU evaluation was performed on day 21–25.
Safety and tolerability assessments consisted of adverse events (AEs), clinical laboratory (clinical chemistry, haematology, coagulation, and urinalysis), vital signs (blood pressure, pulse rate, respiratory rate, and temperature), 12-lead ECG (Part B), 24 h continuous cardiac monitoring (telemetry; Part A), body weight, physical examination, injection site reaction, and measurement of antidrug antibodies (ADA) in plasma (Part B).

For `CC[C@H](C)[C@H](NC(=O)[C@H](CCC(=O)O)NC(=O)[C@H](C)NC(=O)[C@@H](NC(=O)[C@H](Cc1c[nH]cn1)NC(=O)[C@@H](NC(=O)[C@H](CCC(=O)O)NC(=O)[C@H](C)NC(=O)[C@@H](NC(=O)[C@H](CC(C)C)NC(=O)[C@H](CCCCN)NC(=O)[C@H](Cc1c[nH]cn1)NC(=O)[C@H](CC(C)C)NC(=O)[C@H](Cc1ccccc1)NC(=O)[C@H](C)NC(=O)[C@H](CCCNC(=N)N)NC(=O)[C@H](CCCNC(=N)N)NC(=O)[C@H](CCCNC(=N)N)NC(=O)[C@H](C)NC(=O)[C@H](CC(=O)O)NC(=O)[C@H](CCC(N)=O)NC(=O)[C@@H](NC(=O)[C@H](Cc1c[nH]c2ccccc12)NC(=O)[C@H](CCCCN)NC(=O)[C@H](C)NC(=O)[C@H](CCCNC(=N)N)NC(=O)[C@H](CCC(N)=O)NC(=O)[C@H](Cc1c[nH]cn1)NC(=O)[C@H](CCSC)NC(=O)[C@H](CC(C)C)NC(=O)[C@H](CCC(N)=O)NC(=O)[C@@H](NC(=O)[C@H](CCC(=O)O)NC(=O)[C@H](C)NC(=O)[C@@H](NC(=O)[C@H](C)N)C(C)C)[C@@H](C)CC)[C@@H](C)CC)[C@@H](C)CC)[C@@H](C)CC)[C@@H](C)O)C(=O)O` [eneboparatide] (H-AVAEIQLMHQRAKWIQDARRRAFLHKLIAEIHTAEI-OH; N-terminus and C-terminus assumed), the “Abdominal pain, subjects with TEAE” value [1] was 0, the “Application site irritation, subjects with TEAE” value (shortened to “Application site irritation”) [1] was 0 and the “Catheter site haematoma, subjects with TEAE” value (from here on “Catheter site haematoma”) [1] was 3. The “Catheter site pain, subjects with TEAE” value [1] was 1, the “Decreased appetite, subjects with TEAE” value [1] was 0 and the “Diarrhoea, subjects with TEAE” value [1] was 0. The “Dizziness, subjects with TEAE” value [1] was 0, the “Dry skin, subjects with TEAE” value [1] was 0 and the “Dyspepsia, subjects with TEAE” value [1] was 0. The “Fatigue, subjects with TEAE” value [1] was 2, the “Flatulence, subjects with TEAE” value [1] was 1 and the “Headache, subjects with TEAE” value [1] was 1. For the same compound, the “Injection site erythema, subjects with TEAE” value (“Injection site erythema” for short) [1] was 0, the “Injection site haematoma, subjects with TEAE” value (from here on “Injection site haematoma”) [1] was 3 and the “Injection site pain, subjects with TEAE” value [1] was 1. The “Injection site pruritus, subjects with TEAE” value (from here on “Injection site pruritus”) [1] was 0, the “Injection site tenderness, subjects with TEAE” value (“Injection site tenderness” for short) [1] was 0 and the “Insomnia, subjects with TEAE” value [1] was 0. The “Muscle spasms, subjects with TEAE” value [1] was 0, the “Myalgia, subjects with TEAE” value [1] was 1 and the “Nausea, subjects with TEAE” value [1] was 0. The “Somnolence, subjects with TEAE” value [1] was 1, the “Vomiting, subjects with TEAE” value [1] was 0 and the “Abdominal pain, subjects with TEAE” value [2] was 0. For the same compound, the “Application site irritation” value [2] was 3, the “Catheter site haematoma” value [2] was 0 and the “Catheter site pain, subjects with TEAE” value [2] was 0. The “Decreased appetite, subjects with TEAE” value [2] was 0, the “Diarrhoea, subjects with TEAE” value [2] was 1 and the “Dizziness, subjects with TEAE” value [2] was 1. For the same compound, the “Dry skin, subjects with TEAE” value [2] was 2, the “Dyspepsia, subjects with TEAE” value [2] was 1 and the “Fatigue, subjects with TEAE” value [2] was 0. For the same compound, the “Flatulence, subjects with TEAE” value [2] was 1, the “Headache, subjects with TEAE” value [2] was 1 and the “Injection site erythema” value [2] was 1. The “Injection site haematoma” value [2] was 3, the “Injection site pain, subjects with TEAE” value [2] was 0 and the “Injection site pruritus” value [2] was 2. The “Injection site tenderness” value [2] was 0, the “Insomnia, subjects with TEAE” value [2] was 1 and the “Muscle spasms, subjects with TEAE” value [2] was 0. The “Myalgia, subjects with TEAE” value [2] was 0, the “Nausea, subjects with TEAE” value [2] was 2 and the “Somnolence, subjects with TEAE” value [2] was 0. For the same compound, the “Vomiting, subjects with TEAE” value [2] was 0, the “Abdominal pain, subjects with TEAE” value [3] was 1 and the “Application site irritation” value [3] was 0. The “Catheter site haematoma” value [3] was 1, the “Catheter site pain, subjects with TEAE” value [3] was 4 and the “Decreased appetite, subjects with TEAE” value [3] was 1. The “Diarrhoea, subjects with TEAE” value [3] was 2, the “Dizziness, subjects with TEAE” value [3] was 0 and the “Dry skin, subjects with TEAE” value [3] was 0. The “Dyspepsia, subjects with TEAE” value [3] was 2, the “Fatigue, subjects with TEAE” value [3] was 0 and the “Flatulence, subjects with TEAE” value [3] was 1. The “Headache, subjects with TEAE” value [3] was 3, the “Injection site erythema” value [3] was 4 and the “Injection site haematoma” value [3] was 5. For the same compound, the “Injection site pain, subjects with TEAE” value [3] was 0, the “Injection site pruritus” value [3] was 3 and the “Injection site tenderness” value [3] was 0. The “Insomnia, subjects with TEAE” value [3] was 1, the “Muscle spasms, subjects with TEAE” value [3] was 2 and the “Myalgia, subjects with TEAE” value [3] was 4. The “Nausea, subjects with TEAE” value [3] was 1, the “Somnolence, subjects with TEAE” value [3] was 3 and the “Vomiting, subjects with TEAE” value [3] was 0. For the same compound, the “Abdominal pain, subjects with TEAE” value [4] was 1, the “Application site irritation” value [4] was 0 and the “Catheter site haematoma” value [4] was 0. For the same compound, the “Catheter site pain, subjects with TEAE” value [4] was 0, the “Decreased appetite, subjects with TEAE” value [4] was 2 and the “Diarrhoea, subjects with TEAE” value [4] was 0. For the same compound, the “Dizziness, subjects with TEAE” value [4] was 1, the “Dry skin, subjects with TEAE” value [4] was 0 and the “Dyspepsia, subjects with TEAE” value [4] was 2. The “Fatigue, subjects with TEAE” value [4] was 1, the “Flatulence, subjects with TEAE” value [4] was 1 and the “Headache, subjects with TEAE” value [4] was 4. The “Injection site erythema” value [4] was 3, the “Injection site haematoma” value [4] was 3 and the “Injection site pain, subjects with TEAE” value [4] was 2. For the same compound, the “Injection site pruritus” value [4] was 0, the “Injection site tenderness” value [4] was 2 and the “Insomnia, subjects with TEAE” value [4] was 1. The “Muscle spasms, subjects with TEAE” value [4] was 0, the “Myalgia, subjects with TEAE” value [4] was 0 and the “Nausea, subjects with TEAE” value [4] was 5. The “Somnolence, subjects with TEAE” value [4] was 3, the “Vomiting, subjects with TEAE” value [4] was 3 and the “subjects with transient hypercalcaemia” value (Part B, 80 μg/d, well-tolerated, resolved spontaneously after day 14) was “six of the eight”. The “Abdominal pain, subjects with TEAE” value [5] was 0, the “Application site irritation” value [5] was 0 and the “Catheter site haematoma” value [5] was 1. The “Catheter site pain, subjects with TEAE” value [5] was 1, the “Decreased appetite, subjects with TEAE” value [5] was 0 and the “Diarrhoea, subjects with TEAE” value [5] was 0. The “Dizziness, subjects with TEAE” value [5] was 1, the “Dry skin, subjects with TEAE” value [5] was 0 and the “Dyspepsia, subjects with TEAE” value [5] was 0. For the same compound, the “Fatigue, subjects with TEAE” value [5] was 0, the “Flatulence, subjects with TEAE” value [5] was 0 and the “Headache, subjects with TEAE” value [5] was 1. For the same compound, the “Injection site erythema” value [5] was 2, the “Injection site haematoma” value [5] was 3 and the “Injection site pain, subjects with TEAE” value [5] was 0. For the same compound, the “Injection site pruritus” value [5] was 1, the “Injection site tenderness” value [5] was 1 and the “Insomnia, subjects with TEAE” value [5] was 0. For the same compound, the “Muscle spasms, subjects with TEAE” value [5] was 0, the “Myalgia, subjects with TEAE” value [5] was 0 and the “Nausea, subjects with TEAE” value [5] was 4. The “Somnolence, subjects with TEAE” value [5] was 2, the “Vomiting, subjects with TEAE” value [5] was 1 and the “Abdominal pain, subjects with TEAE” value [6] was 2 (5) n (%). For the same compound, the “Application site irritation” value [6] was 3 (7.5) n (%), the “Catheter site haematoma” value [6] was 5 (12.5) n (%) and the “Catheter site pain, subjects with TEAE” value [6] was 6 (15) n (%). For the same compound, the “Decreased appetite, subjects with TEAE” value [6] was 3 (7.5) n (%), the “Diarrhoea, subjects with TEAE” value [6] was 3 (7.5) n (%) and the “Dizziness, subjects with TEAE” value [6] was 3 (7.5) n (%). For the same compound, the “Dry skin, subjects with TEAE” value [6] was 2 (5) n (%), the “Dyspepsia, subjects with TEAE” value [6] was 5 (12.5) n (%) and the “Fatigue, subjects with TEAE” value [6] was 3 (7.5) n (%). For the same compound, the “Flatulence, subjects with TEAE” value [6] was 4 (10) n (%), the “Headache, subjects with TEAE” value [6] was 10 (25) n (%) and the “Injection site haematoma” value [6] was 17 (42.5) n (%). The “Injection site pain, subjects with TEAE” value [6] was 3 (7.5) n (%), the “Injection site pruritus” value [6] was 6 (15) n (%) and the “Injection site tenderness” value [6] was 3 (7.5) n (%). The “Insomnia, subjects with TEAE” value [6] was 3 (7.5) n (%), the “Muscle spasms, subjects with TEAE” value [6] was 2 (5) n (%) and the “Myalgia, subjects with TEAE” value [6] was 5 (12.5) n (%). For the same compound, the “Nausea, subjects with TEAE” value [6] was 12 (30) n (%), the “Somnolence, subjects with TEAE” value [6] was 9 (22.5) n (%) and the “Vomiting, subjects with TEAE” value [6] was 4 (10) n (%). The “telemetry (Part A) or ECG (Part B), blood pressure, heart rate, respiratory rate” value (Parts A and B) was “No changes of clinical relevance”, the “serious or severe AEs” value (Parts A and B: single up to 120 μg, multiple up to 80 μg/day for 14 days) was “No serious or severe AEs were reported” and the “vomiting (mild/moderate AE associated with hypercalcaemia), subjects” value (highest doses tested) was “four out of 40”.
